Assay results taken from BindingDB's records for patent US10487086 (Bristol Myers Squibb, 2019).

Molecular target: Coagulation factor XI (Homo sapiens, UniProt P03951)
Experiment: Factor XIa assay
Method: The effectiveness of compounds of the present invention as inhibitors of the coagulation Factors XIa, VIIa, IXa, Xa, XIIa, plasma kallikrein or thrombin, can be determined using a relevant purified serine protease, respectively, and an appropriate synthetic substrate. The rate of hydrolysis of the chromogenic or fluorogenic substrate by the relevant serine protease was measured both in the absence and presence of compounds of the present invention. […] A decrease in the rate of absorbance or fluorescence change in the presence of inhibitor is indicative of enzyme inhibition. Such methods are known to one skilled in the art. […] Determinations were made using purified human Factor XIa at a final concentration of 25-200 pM (Haematologic Technologies) and the synthetic substrate S-2366 (pyroGlu-Pro-Arg-pNA; CHROMOGENIX or AnaSpec) at a concentration of 0.0002-0.001 M.

Coagulation factor XI, sequence (P03951 19-387 limits assumed): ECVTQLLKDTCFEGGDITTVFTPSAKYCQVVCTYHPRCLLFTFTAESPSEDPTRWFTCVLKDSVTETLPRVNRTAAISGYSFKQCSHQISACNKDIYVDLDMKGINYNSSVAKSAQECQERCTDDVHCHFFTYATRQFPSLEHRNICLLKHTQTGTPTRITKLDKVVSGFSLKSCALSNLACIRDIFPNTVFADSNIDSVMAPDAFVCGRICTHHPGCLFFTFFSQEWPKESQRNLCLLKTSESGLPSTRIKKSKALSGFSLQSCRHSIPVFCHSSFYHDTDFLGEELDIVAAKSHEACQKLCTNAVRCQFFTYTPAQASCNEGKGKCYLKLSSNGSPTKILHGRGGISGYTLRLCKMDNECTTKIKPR
Coagulation factor XI, sequence (P03951 388-625 limits assumed): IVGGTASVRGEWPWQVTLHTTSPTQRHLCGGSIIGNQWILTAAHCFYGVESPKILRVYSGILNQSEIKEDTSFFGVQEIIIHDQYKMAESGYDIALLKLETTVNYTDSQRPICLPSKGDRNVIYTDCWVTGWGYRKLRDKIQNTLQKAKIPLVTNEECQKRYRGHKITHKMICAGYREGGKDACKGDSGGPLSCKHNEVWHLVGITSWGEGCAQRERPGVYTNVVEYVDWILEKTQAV

COC(=O)Nc1ccc2c(c1)N[C@@H](C(=O)O)CCCC[C@H](NC(=O)/C=C/c1cc(Cl)ccc1-n1cnnn1)c1nc-2c[nH]1 [US10487086, Example I-84]
Ki: 580 nM
